Values quoted from earlier work, collected in patent US20220273015A1, “FORMULATIONS AND USES THEREOF” (priority 2021, published 2022).
Entries after “also recorded” stand apart in the source; their conditions may differ.

Tests used:
[1] = system: atypical/precancerous stem cells; settings: used separately or together in one study
[2] = for Properties: properties in words from a review of the primary literature (PMIDs in the cell), wrapped cell lines; for Stability: best preserved in an alcoholic tincture
[3] = <1 ug daily, postoperative control of analgesia

## COc1cc(/C=C/C(=O)CC(=O)/C=C/c2ccc(O)c(OC)c2)ccc1O [curcumin]
[1]
  number of atypical/precancerous stem cells: reduced

## CCCCC/C=C\C/C=C\CCCCCCCC(=O)O [Linoleic acid]
[2]; qualitative, PMID-cited
  Wound healing / skin repair and skin health: shown to lighten UV-induced

## CC(=O)N[C@@H](CS)C(=O)O [N-Acetyl Cysteine (NAC)]
[2]
  Properties: completely blocks Reactive Oxygen Species

## O=C1CC[C@@]2(O)[C@H]3Cc4ccc(O)c5c4[C@@]2(CCN3CC2CC2)[C@H]1O5 [VLDN]
[2]; <1 ug X <0.5 mg daily
  tolerability of opioid-weaning methadone taper: VLDN: boosting tolerability of opioid-weaning

## O=C1CC[C@@]2(O)[C@H]3Cc4ccc(O)c5c4[C@@]2(CCN3CC2CC2)[C@H]1O5 [ULDN]
[2]; [3]
  need for total amount of opioids following surgery: (reduces the need for total amount of opioids
  side-effects of opioid-related treatment: following surgery and ameliorating side-effects

## CC(C)=CCC/C(C)=C/CC/C(C)=C/CC/C(C)=C/CC/C(C)=C/CC/C(C)=C/CC/C(C)=C/CC1=C(C)C(=O)c2ccccc2C1=O [MK7]
[2]; by facilitating signaling cascades which improve translocation of calcium from the serum into the bony matrix, PMID 32244313
  bone mineral density: other vitamin K homologs. MK7 increases

## O=c1c(O)c(-c2ccc(O)c(O)c2)oc2cc(O)cc(O)c12 [Quercetin]
[2]; qualitative, PMID-cited
  Anti-cancer / cytotoxic / antitumor properties: antitumor effects PMID 31880372) the ability

## CCc1ccc(C)c2ccc(C)c-2c1 [chamazulene]
[2]
  Stability: are very unstable and are best preserved in an

## CCCCCCCCCCCCCCCCCC(=O)O [Stearic acid]
[2]; qualitative, PMID-cited
  Metabolic and cardiovascular effects (lipids, blood pressure, glucose, clotting): 10945745) and can increase the “good”
  Wound healing / skin repair and skin health: a saturated fatty acid beneficial to skin; also recorded: important in wound healing of burns (PMID

## O=c1cc(-c2ccc(O)cc2)oc2cc(O)cc(O)c12 [Apigenin]
[2]; qualitative, PMID-cited
  Anti-cancer / cytotoxic / antitumor properties: exerts an antitumor effect in preclinical models

## COc1cc(CCC(C)=O)ccc1O [zingerone]
[2]; observed only at a dose of 30 mg/kg in normal mice, PMID 20606379
  diuretic effect: Oil, zingerone exhibited a mild diuretic effect

## CCCCCCCC/C=C\CCCCCCCC(=O)O [Oleic acid (OA)]
[2]; qualitative
  Safety / toxicity: lead to heart failure (PMID 28391879) though
[2]; qualitative, PMID-cited
  Skin penetration / delivery of ingredients across skin and membranes: Oleic acid (OA) enhances lipophilic penetration

## Vitamin E
[2]
  Properties: skin barrier stabilizing properties (PMID

## CC(C)=CCC[C@](C)(O)C1CC=C(C)CC1 (stereo partly drawn) [bisabolol]
[2]
  Stability: are very unstable and are best preserved in an

## CCCCC/C=C\C/C=C\CCCCCCCC(=O)O [linoleic acid]
[2]; qualitative
  Safety / toxicity: in high quantities is associated with higher rates
[2]; qualitative, PMID-cited
  Wound healing / skin repair and skin health: polyunsaturated fat that improves skin barrier

## CCCCCCCC/C=C\CCCCCCCC(=O)O [Oleic acid]
[2]; "may enhance", PMID 21871866, PMID 2367329
  lipophilic penetration of skin cells: enhance lipophilic penetration of skin cells
[2]; PMID 2235880
  effect on the cell membrane allowing for drug permeability: 21871866) and creates a temporary disruption
[2]; PMID 2514720
  targeted drug delivery across the skin: facilitate targeted drug delivery across the skin

## C=C1/C(=C\C=C2/CCC[C@]3(C)[C@@H]([C@H](C)/C=C/[C@@H](O)C4CC4)CC[C@@H]23)C[C@@H](O)C[C@@H]1O [calcipotriene]
[2]; topical application, PMID 10753146
  chronic plaque psoriasis: topical application of calcipotriene improves

## O=C(O)c1cc(O)c(O)c(O)c1 [Gallic Acid]
[2]; PMID 30657034
  antioxidant, anti-inflammatory, anti-microbial, anti-cancer activities: Powerful antioxidant, anti-inflammatory, anti-
[2]; PMID 32390309, PMID 30617549
  preventing and treating acne: 23501608). Useful in preventing and treating
[2]; in vitro and in vivo, PMID 23501608
  inhibitory properties against cancer: Plant polyphenol with strong inhibitory
[2]; mechanism of anti-cancer effect, PMID 23501608
  NFKB, Akt, COX, ribonucleotide reductase and GSH pathways: (PMID 23501608) by inhibition of NFKB, Akt,
[2]; to prevent carcinogenesis, PMID 23501608
  ATM kinase signaling: pathways; and also activates ATM kinase

## C=C(C)[C@H]1CC=C(C)CC1 [D-limonene]
[2]; qualitative, PMID-cited
  Antimicrobial, antiparasitic, insecticidal / insect repellent properties: a result. D-limonene has antimicrobial
[2]; qualitative, rodent/animal models, PMID-cited
  Effects in animal models: more capable. D-limonene has a mild diuretic

## O=C(O)CCCCC1CCSS1 (stereo not drawn) [Alpha-Lipoic Acid]
[2]; PMID 25381809
  blood flow to damaged nerves, nerve conduction velocity, and other measures of nerve function: microcirculation (PMID 160261130), improves
[2]; PMID 160261130
  diabetic polyneuropathy: improving
  microcirculation: oxidative stress, aging, cancer, improves
  oxidative stress, aging, cancer: reducing
[2]; such as those found in the myelin sheath of neurons
  antioxidant protection of lipids: Antioxidant which specifically protects lipids

## CCCCCCCCCCCCCCCC(=O)O [Palmitic Acid]
[2]; qualitative, PMID-cited
  Wound healing / skin repair and skin health: Palmitic Acid is a saturated fat essential to skin
